According to article PMC4258421 (Archives of biochemistry and biophysics, 2014):
Read-outs that look alike come from different tables or passages of the source.

Experiments:
[1] = tested on: UGTs in human liver microsomes pooled from 150 donors (HLM150); type: in vitro ADME; conditions: for Km: read-out: Km for the microsomal reaction, glucuronidation at the C7 hydroxyl group, HLM150
[2] = tested on: recombinant UGT1A1; conditions: read-out: Km for the UGT1A1 reaction, glucuronidation at the C7 hydroxyl group; cited from earlier work
[3] = tested on: plasma proteins; conditions: cited from earlier work
[4] = formation of 7-HOWAR-4-GLUC, DynaFit preferred model, 95 % CI in parentheses
[5] = formation of 7-HOWAR-7-GLUC, DynaFit preferred model, 95 % CI in parentheses

CC(=O)C[C@H](c1ccccc1)c1c(O)c2ccc(O)cc2oc1=O [R-7-HOWAR, R-7-hydroxywarfarin]
Vmax1 [1, 4]: 58.0 (49.5–66.1) nmol/min/mg protein | Vmax2 [1, 4]: 19.0 (16.3–21.4) nmol/min/mg protein | Ks [1, 5]: 121 (101–144) μM | Vmax1 [1, 5]: 1090 (1050–1140) nmol/min/mg protein | Km [1]: 121 µM | Km [2]: 130 µM | not bound to plasma proteins [3]: 4.49%

CC(=O)C[C@@H](c1ccccc1)c1c(O)c2ccc(O)cc2oc1=O [S-7-OHWAR, S-7-hydroxywarfarin]
Ks [1, 4]: 110 (83.0–149) μM | Vmax1 [1, 4]: 19.7 (17.6–22.4) nmol/min/mg protein | Ks [1, 5]: 927 (559–1960) μM | Vmax1 [1, 5]: 1470 (1020–2700) nmol/min/mg protein | Km [1]: 927 µM | Km [2]: 230 µM | not bound to plasma proteins [3]: 4.27%
